According to patent publication US6737383B1, “Herbicidal oxadiazolidines” (priority 1999, dated 2004):

Legend:
bedstraw = assay: Test B pre/postemergence bedstraw; type: in vivo, Galium aparine
Method in brief: (§1)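 Response is a visual 0-to-10 score relative to untreated plants, where 0 means no effect and 10 means complete control, taken twelve to sixteen days after application. Treatments went onto soil at planting and onto foliage of 1- to 4-leaf plants, using a surfactant-containing non-phytotoxic solvent.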

blackgrass = assay: Test B pre/postemergence blackgrass; type: in vivo, Alopecurus myosuroides
Method in brief: as §1

surinam grass = assay: Test B pre/postemergence surinam grass; type: in vivo, Brachiaria decumbens
Method in brief: as §1

cocklebur = assay: Test B pre/postemergence cocklebur; type: in vivo, Xanthium strumarium
Method in brief: as §1

corn = assay: Test B pre/postemergence corn; type: in vivo, Zea mays
Method in brief: as §1

giant foxtail = assay: Test B pre/postemergence giant foxtail; type: in vivo, Setaria faberii
Method in brief: as §1

morningglory = assay: Test B pre/postemergence morningglory; type: in vivo, Ipomoea hederacea
Method in brief: as §1

pigweed = assay: Test B pre/postemergence pigweed; type: in vivo, Amaranthus retroflexus
Method in brief: as §1

rape = assay: Test B pre/postemergence rape; type: in vivo, Brassica napus
Method in brief: as §1

soybean = assay: Test B pre/postemergence soybean; type: in vivo, Glycine max
Method in brief: as §1

sugar beet = assay: Test B pre/postemergence sugar beet; type: in vivo, Beta vulgaris
Method in brief: as §1

velvetleaf = assay: Test B pre/postemergence velvetleaf; type: in vivo, Abutilon theophrasti
Method in brief: as §1

wheat = assay: Test B pre/postemergence wheat; type: in vivo, Triticum aestivum
Method in brief: as §1

wild oat = assay: Test B pre/postemergence wild oat; type: in vivo, Avena fatua
Method in brief: as §1

rice = assay: Test B flood test rice; type: in vivo, Oryza sativa
Method in brief: (§2)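 Read-out is a visual response score from 0 (no effect) to 10 (complete control), assigned by comparison with untreated controls. Treatment was applied at the 2-leaf stage, and plants stayed in the greenhouse for twelve to sixteen days before scoring.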

smallflower flatsedge = assay: Test B flood test smallflower flatsedge; type: in vivo, Cyperus difformis
Method in brief: as §2

[1] = Preemergence, Rate 62 g/ha, scale of 0 to 10 where 0 is no effect and 10 is complete control
[2] = Preemergence, Rate 250 g/ha, scale of 0 to 10 where 0 is no effect and 10 is complete control
[3] = Preemergence, Rate 500 g/ha, scale of 0 to 10 where 0 is no effect and 10 is complete control
[4] = Rate 62 g/ha, Postemergence, scale 0 to 10, 0 no effect, 10 complete control
[5] = Rate 125 g/ha, Postemergence, scale of 0 to 10 where 0 is no effect and 10 is complete control
[6] = Rate 250 g/ha, Postemergence, scale of 0 to 10 where 0 is no effect and 10 is complete control
[7] = Rate 500 g/ha, Postemergence, scale 0 to 10, 0 no effect, 10 complete control
[8] = Rate 62 g/ha, headed Pre-emergence (flood test species), scale 0 to 10 (0 no effect, 10 complete control)
[9] = Rate 125 g/ha, Pre-emergence, flood test species, scale 0 to 10 where 0 is no effect and 10 is complete control
[10] = Rate 250 g/ha, Pre-emergence, flood-test species, scale 0 to 10, 0 is no effect, 10 is complete control
[11] = Rate 500 g/ha, Pre-emergence, flood test species, scale 0 to 10 (0 no effect, 10 complete control)

Cc1ccccc1-n1c(=O)on(C(=O)N(c2ccncc2)C(C)C)c1=O [Compound 301]
0: Bedstraw plant response rating (bedstraw; [1]) | Bedstraw plant response rating (0 to 10 scale) (bedstraw; Preemergence, Rate 125 g/ha) | Bedstraw plant response rating (bedstraw; [2]) | Bedstraw plant response rating (bedstraw; [3]) | Bedstraw plant response rating (bedstraw; [4]) | Bedstraw plant response rating (bedstraw; [5]) | Blackgrass plant response rating (blackgrass; [1]) | Blackgrass plant response rating (0 to 10 scale) (blackgrass; Preemergence, Rate 125 g/ha) | Blackgrass plant response rating (blackgrass; [2]) | Blackgrass plant response rating (blackgrass; [3]) | Blackgrass plant response rating (blackgrass; [4]) | Blackgrass plant response rating (blackgrass; [5]) | Plant response rating, Blackgrass (blackgrass; [6]) | Blackgrass plant response rating (blackgrass; [7]) | B. signalgrass plant response rating (surinam grass; [1]) | B. signalgrass plant response rating (0 to 10 scale, 0 is no effect, 10 is complete control) (surinam grass; Preemergence, Rate 125 g/ha) | B. signalgrass plant response rating (surinam grass; [2]) | B. signalgrass plant response rating (surinam grass; [3]) | B. signalgrass plant response rating (surinam grass; [4]) | B. signalgrass plant response rating (surinam grass; [5]) | Plant response rating, B. signalgrass (surinam grass; [6]) | B. signalgrass plant response rating (surinam grass; [7]) | Cocklebur plant response rating (cocklebur; [1]) | Cocklebur plant response rating (0 to 10 scale) (cocklebur; Preemergence, Rate 125 g/ha) | Cocklebur plant response rating (cocklebur; [2]) | Cocklebur plant response rating (cocklebur; [4]) | Cocklebur plant response rating (cocklebur; [5]) | Plant response rating, Cocklebur (cocklebur; [6]) | Cocklebur plant response rating (cocklebur; [7]) | Corn plant response rating (corn; [1]) | Corn plant response rating (0 to 10 scale) (corn; Preemergence, Rate 125 g/ha) | Corn plant response rating (corn; [2]) | Corn plant response rating (corn; [3]) | Corn plant response rating (corn; [4]) | Corn plant response rating (corn; [5]) | Plant response rating, Corn (corn; [6]) | Corn plant response rating (corn; [7]) | Giant foxtail plant response rating (giant foxtail; [1]) | Giant foxtail plant response rating (0 to 10 scale) (giant foxtail; Preemergence, Rate 125 g/ha) | Giant foxtail plant response rating (giant foxtail; [2]) | Giant foxtail plant response rating (giant foxtail; [3]) | Giant foxtail plant response rating (giant foxtail; [4]) | Giant foxtail plant response rating (giant foxtail; [5]) | Plant response rating, Giant foxtail (giant foxtail; [6]) | Morningglory plant response rating (morningglory; [1]) | Morningglory plant response rating (0 to 10 scale) (morningglory; Preemergence, Rate 125 g/ha) | Morningglory plant response rating (morningglory; [2]) | Morningglory plant response rating (morningglory; [3]) | Morningglory plant response rating (morningglory; [4]) | Morningglory plant response rating (morningglory; [5]) | Plant response rating, Morningglory (morningglory; [6]) | Redroot pigweed plant response rating (pigweed; [1]) | Redroot pigweed plant response rating (0 to 10 scale) (pigweed; Preemergence, Rate 125 g/ha) | Redroot pigweed plant response rating (pigweed; [2]) | Redroot pigweed plant response rating (pigweed; [3]) | Redroot pigweed plant response rating (pigweed; [4]) | Redroot pigweed plant response rating (pigweed; [5]) | Plant response rating, Redroot pigweed (pigweed; [6]) | Rape plant response rating (rape; [1]) | Rape plant response rating (0 to 10 scale) (rape; Preemergence, Rate 125 g/ha) | Rape plant response rating (rape; [2]) | Rape plant response rating (rape; [3]) | Rape plant response rating (rape; [4]) | Rape plant response rating (rape; [5]) | Plant response rating, Rape (rape; [6]) | Soybean plant response rating (soybean; [1]) | Soybean plant response rating (0 to 10 scale) (soybean; Preemergence, Rate 125 g/ha) | Soybean plant response rating (soybean; [2]) | Soybean plant response rating (soybean; [3]) | Soybean plant response rating (soybean; [4]) | Soybean plant response rating (soybean; [5]) | Plant response rating, Soybean (soybean; [6]) | Sugarbeets plant response rating (sugar beet; [1]) | Sugarbeets plant response rating (0 to 10 scale) (sugar beet; Preemergence, Rate 125 g/ha) | Sugarbeets plant response rating (sugar beet; [2]) | Sugarbeets plant response rating (sugar beet; [3]) | Sugarbeets plant response rating (sugar beet; [4]) | Sugarbeets plant response rating (sugar beet; [5]) | Plant response rating, Sugarbeets (sugar beet; [6]) | Velvetleaf plant response rating (velvetleaf; [1]) | Velvetleaf plant response rating (0 to 10 scale) (velvetleaf; Preemergence, Rate 125 g/ha) | Velvetleaf plant response rating (velvetleaf; [2]) | Velvetleaf plant response rating (velvetleaf; [3]) | Velvetleaf plant response rating (velvetleaf; [4]) | Velvetleaf plant response rating (velvetleaf; [5]) | Plant response rating, Velvetleaf (velvetleaf; [6]) | Wheat plant response rating (wheat; [1]) | Wheat plant response rating (0 to 10 scale) (wheat; Preemergence, Rate 125 g/ha) | Wheat plant response rating (wheat; [2]) | Wheat plant response rating (wheat; [3]) | Wheat plant response rating (wheat; [4]) | Wheat plant response rating (wheat; [5]) | Plant response rating, Wheat (wheat; [6]) | Wild oats plant response rating (wild oat; [1]) | Wild oats plant response rating (0 to 10 scale) (wild oat; Preemergence, Rate 125 g/ha) | Wild oats plant response rating (wild oat; [2]) | Wild oats plant response rating (wild oat; [3]) | Wild oats plant response rating (wild oat; [4]) | Wild oats plant response rating (wild oat; [5]) | Plant response rating, Wild oats (wild oat; [6]) | Rice plant response rating (rice; [8]) | Rice plant response rating (rice; [9]) | Rice plant response rating (rice; [10]) | Rice plant response rating (rice; [11]) | S. Flatsedge plant response rating (smallflower flatsedge; [8]) | S. Flatsedge plant response rating (smallflower flatsedge; [9]) | S. Flatsedge plant response rating (smallflower flatsedge; [10]) | S. Flatsedge plant response rating (smallflower flatsedge; [11])
